Patent US9238069B2, “Method of sensitizing cancer cells to the cytotoxic effects of death receptor ligands in cancer treatment” (The United States of America, as represented by the …, priority 2009, dated 2016)

Tests used:
[1] = test system: ACHN renal cancer cells; test: SRB dose-response assay for synergy with TRAIL (percent growth inhibition); type: cell-based; conditions: 4 h presensitization, TRAIL 20 ng/mL, FIG. 11
Text: FIG. 11 depicts the dose-response curves for withanolide E and withanolide S in the presence of TRAIL. The y-axis represents percent growth inhibition for ACHN renal cancer cells. The lines labeled “−TRAIL” are the dose-response curves for withanolide E and withanolide S in the absence of TRAIL. The lines labeled “predicted +TRAIL” is the predicted additive percent growth inhibition resulting from addition of the growth inhibition due to withanolide E and withanolide S plus TRAIL. The lines labeled “Actual +TRAIL” is the actual percent growth inhibition determined by the assay.
This Example illustrates another aspect of the assay. […] Controls were combined on each assay plate and included: SRB background absorbance (no cells), untreated (DMSO-only) cells, TRAIL-only cells, cytotoxicity positive control −TRAIL (sanguinarine hydrochloride; one concentration), and synergy positive control +TRAIL (bortezomib; one conconcentrion plus a dose-response range).
Compound dilutions were prepared in clear test medium and added to cells. […] Dye was resolubilized by addition of 10 mM TRIZMA base solution (30 μL) and resuspended on a rotary shaker for a few minutes before reading the plates for absorbance at 520 nm using a Safire plate reader (Tecan Group Ltd., Männedorf, Switzerland). […]

[2] = test system: caspase-8 in ACHN cells; test: Western blot of caspase-8 cleavage after sensitizer plus TRAIL; type: cell-based; conditions: compound 10 μM, sensitized 4 h, then TRAIL 40 ng/mL, FIG. 5
Method: This Example illustrates cleavage of caspase resulting from treatment of cells with anolides in combination with TRAIL. ACHN cells were seeded into 6-well tissue culture plates at […] cells/well in clear test medium and the next day compound was added to a final concentration of 10 μM. Cells were sensitized for 4 h followed by addition of TRAIL to 40 ng/mL final concentration. Cells were harvested in lysis buffer at short intervals after addition of the TRAIL reagent using 165 μL per well. Lysis buffer contained: 50 mM Tris-Cl (pH 8.0), 300 mM NaCl, 5 mM EDTA, 0.5% Triton X-100, 40 μM Z-VAD-FMK, plus one mini-complete protease inhibitor tablet (Roche, Mannheim, Germany) or 100 μL Halt Protease Inhibitor Single-Use Cocktail (Pierce Biotechnology, Inc., Rockford, Ill.) per 6 mL buffer. Lysates were clarified by centrifugation at 4° C. for 15 min at 15,000 rpm and protein content normalized using the bicinchonic acid (BCA) assay (Pierce Biotechnology, Inc.).
Lysates were run under reducing conditions at 20 μg total protein per lane, in NuPAGE 4-12% Bis-Tris gels (1.0 mm×12 well; Invitrogen), using MESS DS running buffer and added antioxidant in the upper chamber. […]
The Western blots determined using the above protocol for withanolide E is depicted in FIG. 5.

Substance	percent growth inhibition in combination with TRAIL versus sensitizer alone or TRAIL alone (synergistic response) [1]	cleavage of caspase-8 [2]
withanolide E	substantially greater	resulted in the cleavage of caspase-8
withanolide S	substantially greater	
